Test results from patent EP0932387B1 (UNILEVER PLC, priority 1996, dated 1998).
Where two headings read alike, the source gives them in different places.

How the values were obtained:
[1] = test system: acyl CoA retinol transferase (ARAT); test: In vitro Microsomal Assay, ARAT catalyzed retinol esterification (retinyl palmitate formation); format: biochemical, bovine
Protocol: (§2) A solution containing 0.1M sodium phosphate pH 7 buffer, 5mM dithiothreitol, 2 mg/ml bovine serum albumin, 40 micromolar palmitoyl CoA, 40 micromolar dilauroyl phosphatidyl choline, 10 micromolar retinol and a test compound or a solvent blank, is incubated for 1 hour at 37°C with a microsomal fraction isolated from bovine retinal pigment epithelial cells. After incubation, the reaction is quenched by addition of an equal volume of ethanol, and the retinyl esters formed (retinyl laurate from the LRAT catalyzed reaction and retinyl palmitate from ARAT catalyzed reaction) are extracted with hexane.
(§3) A solution containing 0.1M sodium phosphate pH 7 buffer, 5mM dithiothreitol, 2 mg/ml bovine serum albumin, 40 micromolar palmitoyl CoA, 40 micromolar dilauroyl phosphatidyl choline, 10 micromolar retinol and a test compound or solvent blank, was incubated for 1 hour at 37°C with a microsomal fraction isolated from bovine retinal pigment epithelial cells. After incubation, the reaction was quenched by addition of an equal volume of ethanol, and the retinyl esters formed (retinyl palmitate from the ARAT catalyzed reaction, and retinyl laurate from the LRAT catalyzed reaction) were extracted with hexane.

[2] = target: T1, lecithin retinol acyl transferase (LRAT) (Bos taurus, UniProt Q9BGL2); test: In vitro Microsomal Assay, LRAT catalyzed retinol esterification (retinyl laurate formation); format: biochemical, bovine
T1 construct: a microsomal fraction isolated from bovine retinal pigment epithelial cells; from tissue; host or cells: bovine retinal pigment epithelium, microsomal fraction
T1 sequence (Q9BGL2 1-230): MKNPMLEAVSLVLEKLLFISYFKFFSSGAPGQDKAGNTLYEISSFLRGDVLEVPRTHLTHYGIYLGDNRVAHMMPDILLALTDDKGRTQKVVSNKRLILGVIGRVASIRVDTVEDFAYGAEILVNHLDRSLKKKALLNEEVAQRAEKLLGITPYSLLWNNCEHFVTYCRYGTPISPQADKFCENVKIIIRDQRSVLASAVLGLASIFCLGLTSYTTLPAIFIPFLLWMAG
Protocol: as §2, §3

Human keratinocytes [3] = test: Transglutaminase Assay (TGase I ELISA, procedure for other Examples), normalized to DNA; keratinocyte differentiation; format: cell-based; settings: for TGase/ DNA (% control) / mean TGase/ DNA x10^5 ± s.d: 72 hour treatment; for mean TGase/ DNA x10^5 ± s.d: n = 3; for % Control: 1 mM, transglutaminase normalized to DNA; for activity at 1 µM: 1 micromolar, read-out: % of Control
Protocol: (§1) Human keratinocytes, isolated from neonatal foreskin by trypsin treatment were grown in Dulbecco Modification Eagle (DME) Hams F12 (1:1) medium/10% fetal calf serum in the presence of irradiated 3T3 mouse fibroblasts for establishing dividing keratinocyte colonies. Cells were grown under the above condition until their second passage and kept frozen for future use. Frozen second passage keratinocytes were thawed and plated into the above medium and grown for five days before they were switched to a serum-free MCDB 153-based medium keratinocyte growth medium (KGM) from Clonetics Corporation, San Diego, CA, containing 0.15 mM Ca, or keratinocyte serum-free media (KSFM) from GIBCO containing 0.09 mM Ca). On day 7, when the cells were 80-90% confluent, they were trypsinized and plated in the serum-free medium for the various experiments.
During the process of terminal differentiation in the epidermis, a 15nm thick layer of protein, known as the cornified envelope (CE) is formed on the inner surface of the cell periphery. The CE is composed of numerous distinct proteins which have been cross-linked together by the formation of N^ε-(γ-glutamyl) lysine isodipeptide bonds catalyzed by the action of at least two different transglutaminases (TGases) expressed in the epidermis. Transglutaminase I (TGase I) is expressed in abundance in the differentiated layers of the epidermis, especially the granular layer, but is absent in the undifferentiated basal epidermis. Thus TGase I is a useful marker of epidermal keratinocyte differentiation with high TGase I levels indicating a more differentiated state. An ELISA based TGase I assay, using a TGase I antibody, was used to assess the state of differentiation of the cultured keratinocytes in the examples that follow.
Keratinocytes (cultured as described above) were plated in 96 well plates at a density of 3,000 cells per well in 200µl of cell culture media. After incubation for four days, the media was changed to media containing test compounds (six replicates per test). The cells were cultured for a further 72 hours after which time the media was aspirated and the plates stored at -70°C. After the plates were removed from the freezer, the cells were further freezed fractured by freezing and thawing and then washed 3x with PBS. The cells were incubated for one hour at room temperature (R/T) with TBS/5% BSA buffer. Cells were then incubated with 100µl of monoclonal anti-human transglutaminase (IgG) mouse antibody (primary antibody) obtained from Biomedical Technologies Inc. diluted 1:2000 in TBS/1% BSA buffer for two hours at 37°C, and then rinsed six times with wash buffer (TBS/1% BSA/0.05% Tween-20). Cells were next incubated with 100µl of Fab fragment, peroxidase conjugated anti-mouse IgG antibody (secondary antibody) from Amersham diluted 1:4,000 in wash buffer for two hours at 37°C and then rinsed three times with wash buffer and three times with PBS. Cells were incubated with substrate solution (4mg o-phenylene diamine and 3.3µl 30% H2O2 in 10mL 0.1M citrate buffer, pH 5.0) for five minutes at R/T and in darkness (under aluminum foil). The reaction was stopped by the addition of 50µl 4N H2SO4. The absorbance of samples was read at 492nm in the plate reader. Out of the six replicates, four were treated with both antibodies, two were treated only with the secondary antibody (i.e., to determine the background binding of the enzyme conjugated antibody). Transglutaminase I levels were determined by subtracted background from the readings from each treatment and determining the mean ± s.d. for the replicates exposed to both antibodies.
The level of TGase I detected after treatment of the cells could be influenced by cell number, i.e., the greater the number of cells the greater the level of TGase-1 detected. The level of Tgase I was normalized to DNA content of the cells in the same well thus eliminating variation due to differences in cell number. […]

Human keratinocytes [4] = test: 3H-Thymidine incorporation, keratinocyte proliferation; format: cell-based; settings: 250 nM
Protocol: as §1
The incorporation of ^3H-thymidine by cultured keratinocytes was used as an assay of keratinocyte proliferation. Thymidine is one of four deoxynucleosides which are the monomeric units of DNA, the universal library of genetic information in the animal kingdom. Prior to cell division of a somatic cell such as a keratinocyte, the complete genome of the cell undergoing cell division is replicated. This involves large scale DNA synthesis by the cell and enables both daughter cells to receive identical copies of the genetic material. When ^3H-thymidine is included in the culture media of keratinocytes which are synthesizing DNA in preparation for cell division then the labelled nucleoside is incorporated into the newly synthesized DNA. The extent of incorporation of ^3H-thymidine into a population of cells is proportional to the rate of DNA synthesis by this population of cells and therefore an indication of their cellular proliferation.
Keratinocytes (that were cultured as described above) were plated in 24 well plates at a density of 20,000 cells per well in 1 ml media. After incubation for four days or until the cells were 60-70% confluent, the media was changed. Test compounds were added (in triplicate) to the wells 24 hours after the media change, and four hours later 1µCi ^3H-Thymidine in 50 µl media was added per well. Cells were incubated for a further 24 hours. Media was removed from the cells, 10% ice cold trichloroacetic acid (TCA) added and plates were incubated on ice for 30 minutes. Cells were washed five times with 5% TCA and allowed to dissolve in 500 µl 0.1M NaOH for at least one hour (usually overnight). The preparations were neutralized with 0.1M HCl; 50 µl of the cell preparation was used to determine total protein content. Disintegrations per minute (DPM) from ^3H labelling of DNA was determined by liquid scintillation counting of 900µl of the cell preparation. Thymidine incorporation results were expressed as DPM/µg protein.

[5] = Table 10, 100 µM, read-out: % INHIBITION, LRAT
[6] = Table 5A, 100µM, read-out: % INHIBITION, LRAT
[7] = Table 2, 100 µM, read-out: % INHIB. LRAT

CC(=O)c1cc2c(cc1C)C(C)(C)C(C)C2C(C)C (centres unmarked) [traseolide]
% INHIBITION, ARAT ([1]; Table 5A, 100µM): 41%

O=C1C[C@@H](c2ccc(O)cc2)Oc2cc(O)cc(O)c21 [Naringenin, naringenin]
inhibition at 100 µM [2, 5]: 14%
TGase/ DNA (% control) (Human keratinocytes [3]; Table 11, 10^-7M): 94%
mean TGase/ DNA x10^5 ± s.d (Human keratinocytes [3]; Table 11, 10^-7M): 49.84 ± 2.76
TGase/ DNA (% control) (Human keratinocytes [3]; Table 12, 10^-8M): 89%
mean TGase/ DNA x10^5 ± s.d (Human keratinocytes [3]; Table 12, 10^-8M): 45.01 ± 1.90
% INHIBITION, ARAT ([1]; Table 10, 100 µM): 33%

CCC(=O)/C=C/C1C(C)=CCCC1(C)C (stereo not drawn) [alpha methyl ionone]
inhibition at 100 µM [2, 6]: 77%

CCCCCCCCC=CCCCCCCCC(=O)NCCC[N+](C)(C)CC(=O)[O-] [oleamidopropyl betaine]
inhibition at 100 µM [2, 7]: 0%

CCCCCCCCCCCC1=NCCN1CCO [Lauryl, lauryl hydroxyethyl imidazoline]
inhibition at 10 µM ([2]; Table 3, 10 micromolar, read-out: % INHIB. LRAT): 0%
inhibition at 100 µM ([2]; Table 3, 100 micromolar, read-out: % INHIB. LRAT): 47%

C/C=C/C(=O)C1CCC(C)(C)C=C1C (centres unmarked) [isodamascone]
inhibition at 100 µM [2, 6]: 92%
% INHIBITION, ARAT ([1]; Table 5A, 100µM): 80%

C/C=C/C(=O)C1C(C)=CCCC1(C)C (stereo not drawn) [alpha damascone]
% Control (Human keratinocytes [3]; Table 7, experiment 1): 92%
% Control (Human keratinocytes [3]; Table 7, experiment 2): 86%
% INHIBITION, ARAT ([1]; Table 5A, 100µM): 83%
% INHIBITION, ARAT ([1]; Table 5B, 10µM): 67%

CCCCCCCCC=CCCCCCCCC[N+](C)(C)[O-] [oleamine oxide]
inhibition at 100 µM [2, 7]: 0%

CCCCCCCCCCCC(=O)N(C)CC(=O)O [lauroyl sarcosine]
inhibition at 100 µM [2, 7]: 0%
% INHIB. ARAT ([1]; Table 2, 100 µM): 20%

CCCCCCCCCCCCCCCC(=O)OC/C=C(C)/C=C/C=C(C)/C=C/C1=C(C)CCCC1(C)C [retinyl palmitate]
activity at […] (Human keratinocytes [3]; Homo sapiens, Keratinocyte, Example 12, 2.5x10^-9M, read-out: keratinocyte TGase I level (% of control)): 93%
TGase/ DNA (% control) (Human keratinocytes [3]; Table 12, 2.5x10^-8M): 93%
mean TGase/ DNA x10^5 ± s.d (Human keratinocytes [3]; Table 12, 2.5x10^-8M): 47.32 ± 4.22

CCCCCCCC/C=C\CCCCCCCC1=NCCN1CCO [oleyl hydroxyethyl imidazoline]
activity at 1 µM (Human keratinocytes [3]; Homo sapiens, Keratinocyte, Table 4, Exp 1): 80.7%
activity at 1 µM (Human keratinocytes [3]; Homo sapiens, Keratinocyte, Table 4, Exp 2): 78.2%
activity at 1 µM (Human keratinocytes [3]; Homo sapiens, Keratinocyte, Table 4, Exp 3): 91.1%

O=c1c(O)c(-c2ccc(O)c(O)c2)oc2cc(O)cc(O)c12 [Quercetin, quercetin]
inhibition at 100 µM [2, 5]: 14%
% INHIBITION, ARAT ([1]; Table 10, 100 µM): 25%

CCOC(=O)C1=C(C)C=CCC1(C)C [ethyl saffranate]
inhibition at 100 µM [2, 6]: 49%

CC1=C(/C=C/C(C)=C/C=C/C(C)=C/C(=O)O)C(C)(C)CCC1 [retinoic acid]
% Control (Human keratinocytes [4]; Table 9A, Experiment #1): 156%
DPM/Microgram Protein mean (Human keratinocytes [4]; Table 9A, Experiment #1): 3013 DPM/Microgram Protein
% Control (Human keratinocytes [4]; Table 9B, Experiment #2): 163%
DPM/Microgram Protein mean (Human keratinocytes [4]; Table 9B, Experiment #2): 1494 DPM/Microgram Protein
TGase/ DNA (% control) (Human keratinocytes [3]; Table 11, 2.5x10^-7M): 42%
mean TGase/ DNA x10^5 ± s.d (Human keratinocytes [3]; Table 11, 2.5x10^-7M): 22.47 ± 2.31
TGase/ DNA (% control) (Human keratinocytes [3]; Table 12, 2.5x10^-7M): 32%
mean TGase/ DNA x10^5 ± s.d (Human keratinocytes [3]; Table 12, 2.5x10^-7M): 16.31 ± 2.58
TGase/ DNA (% control) (Human keratinocytes [3]; Table 13, 2.5x10^-7M): 52%
